# ChEMBL document CHEMBL2074456, “Estrone and 17beta-estradiol reverse breast cancer resistance protein-mediated multidrug resistance” (Jpn J Cancer Res, 2002)
# What was measured:
# [1] = molecular target: T1, Broad substrate specificity ATP-binding cassette transporter ABCG2 (Homo sapiens, UniProt Q9UNQ0); assay: TP_TRANSPORTER: inhibition of Topotecan efflux (Topotecan: 20 uM, Estrone: 100 uM) in BCRP-expressing K562 cells: flow cytometric analysis; format: functional, cell-based; conditions: k562, 100 µM
# T1 sequence (Q9UNQ0 whole entry): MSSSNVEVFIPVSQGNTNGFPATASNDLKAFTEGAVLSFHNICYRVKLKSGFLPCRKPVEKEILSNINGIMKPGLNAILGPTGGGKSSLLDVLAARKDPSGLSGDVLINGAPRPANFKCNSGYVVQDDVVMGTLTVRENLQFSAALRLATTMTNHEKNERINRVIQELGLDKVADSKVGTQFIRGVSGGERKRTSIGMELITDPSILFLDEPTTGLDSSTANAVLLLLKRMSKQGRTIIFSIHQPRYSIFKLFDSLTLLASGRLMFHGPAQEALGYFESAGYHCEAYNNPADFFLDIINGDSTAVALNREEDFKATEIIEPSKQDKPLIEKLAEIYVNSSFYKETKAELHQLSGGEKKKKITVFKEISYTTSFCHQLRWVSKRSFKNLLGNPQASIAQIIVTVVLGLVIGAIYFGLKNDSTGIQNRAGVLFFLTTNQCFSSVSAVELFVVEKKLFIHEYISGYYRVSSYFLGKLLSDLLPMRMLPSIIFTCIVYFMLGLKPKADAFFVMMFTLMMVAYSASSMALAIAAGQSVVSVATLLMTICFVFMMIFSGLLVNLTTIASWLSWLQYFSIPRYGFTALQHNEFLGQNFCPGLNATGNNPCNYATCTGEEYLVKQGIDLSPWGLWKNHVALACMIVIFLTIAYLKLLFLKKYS
# [2] = molecular target: T1, Broad substrate specificity ATP-binding cassette transporter ABCG2; assay: TP_TRANSPORTER: inhibition of Topotecan efflux (Topotecan: 20 uM, beta-Estradiol: 100 uM) in BCRP-expressing K562 cells: flow cytometric analysis; format: functional, cell-based; conditions: k562, 100 µM
Structure (SMILES),Activity [1],Activity [2]
C[C@]12CC[C@@H]3c4ccc(O)cc4CC[C@H]3[C@@H]1CCC2=O [ESTRONE],inhibitor [+],–
C[C@]12CC[C@@H]3c4ccc(O)cc4CC[C@H]3[C@@H]1CC[C@@H]2O [ESTRADIOL],–,inhibitor [+]
